Measurements taken from ChEMBL document CHEMBL1201862, “PubChem BioAssay data set” (2004).
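Grown in 96-well plates, cells were treated for 48 hours with each compound at five concentrations. Insufficient inhibition: endpoint recorded as highest concentration tested. GI50: concentration for 50% inhibition of growth.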 Activity calls are given as the source filed them. Rule as the data show it: active = GI50 up to about 1.1 µM and inactive = higher.

How the values were obtained:
Assay in all cases: DTP human tumour cell line panel, 48 h
786-0 = tested on: 786-0
A498 = tested on: A498
A549 = tested on: A549
ACHN = tested on: ACHN
CAKI-1 = tested on: CAKI-1
CCRF-CEM = tested on: CCRF-CEM
COLO 205 = tested on: COLO 205
DLD-1 = tested on: DLD-1
DMS-273 = tested on: DMS-273
EKVX = tested on: EKVX
HCC 2998 = tested on: HCC 2998
HCT-15 = tested on: HCT-15
HL-60 = tested on: HL-60
HOP-18 = tested on: HOP-18
HOP-62 = tested on: HOP-62
HOP-92 = tested on: HOP-92
HT-29 = tested on: HT-29
IGROV-1 = tested on: IGROV-1
K562 = tested on: K562
KM-20L2 = tested on: KM-20L2
KM12 = tested on: KM12
LOX IMVI = tested on: LOX IMVI
LXFL 529 = tested on: LXFL 529
M14 = tested on: M14
M19-MEL = tested on: M19-MEL
MOLT-4 = tested on: MOLT-4
Malme-3M = tested on: Malme-3M
NCI-H226 = tested on: NCI-H226
NCI-H23 = tested on: NCI-H23
NCI-H460 = tested on: NCI-H460
NCI-H522 = tested on: NCI-H522
OVCAR-3 = tested on: OVCAR-3
OVCAR-4 = tested on: OVCAR-4
OVCAR-5 = tested on: OVCAR-5
OVCAR-8 = tested on: OVCAR-8
RPMI-8226 = tested on: RPMI-8226
RXF 631 = tested on: RXF 631
SF-268 = tested on: SF-268
SF-295 = tested on: SF-295
SF-539 = tested on: SF-539
SK-MEL-28 = tested on: SK-MEL-28
SK-MEL-2 = tested on: SK-MEL-2
SK-MEL-5 = tested on: SK-MEL-5
SK-OV-3 = tested on: SK-OV-3
SN12C = tested on: SN12C
SNB-19 = tested on: SNB-19
SNB-75 = tested on: SNB-75
SNB-78 = tested on: SNB-78
SW-620 = tested on: SW-620
TK-10 = tested on: TK-10
U-251 = tested on: U-251
UACC-257 = tested on: UACC-257
UACC-62 = tested on: UACC-62
UO-31 = tested on: UO-31
XF498 = tested on: XF498
DMS-114 = tested on: DMS-114
HCT-116 = tested on: HCT-116
SR = tested on: SR
RXF 393 = tested on: RXF 393

Measured: GI50

Cc1ccc(-c2c(N)[n+]([O-])c3ccccc3[n+]2[O-])cc1
inactive: 786-0 13.5 µM | A498 > 10 µM | A549 23.3 µM | ACHN 15.4 µM | CAKI-1 3.81 µM | CCRF-CEM 47.4 µM | COLO 205 15.2 µM | DLD-1 13.1 µM | DMS-273 13.4 µM | EKVX 23.4 µM | HCC 2998 15.8 µM | HL-60 9.95 µM | HOP-18 15.7 µM | HOP-62 17.1 µM | HOP-92 > 100 µM | HT-29 12.3 µM | IGROV-1 14.9 µM | K562 15 µM | KM-20L2 15 µM | KM12 11.9 µM | LOX IMVI 11 µM | LXFL 529 5.81 µM | M14 12 µM | M19-MEL 11.7 µM | MOLT-4 45.2 µM | Malme-3M 3.47 µM | NCI-H226 17.9 µM | NCI-H23 5 µM | NCI-H460 18.7 µM | NCI-H522 1.55 µM | OVCAR-3 16 µM | OVCAR-4 17.3 µM | OVCAR-5 17.9 µM | OVCAR-8 23.4 µM | RPMI-8226 21.4 µM | RXF 631 1.65 µM | SF-268 16.9 µM | SF-295 20 µM | SF-539 11 µM | SK-MEL-28 6.52 µM | SK-MEL-2 8.51 µM | SK-MEL-5 11.4 µM | SK-OV-3 21.2 µM | SN12C 10.6 µM | SNB-19 12.7 µM | SNB-75 12.2 µM | SNB-78 13 µM | SW-620 5.25 µM | TK-10 18.4 µM | U-251 14.3 µM | UACC-257 7.21 µM | UACC-62 7.18 µM | UO-31 16.1 µM | XF498 3.71 µM
3.42 µM: HCT-15

COC(=O)C1=CC2C(=O)OC1C1C(=O)NC(=O)C21 (stereo not given)
inactive: 786-0 > 100 µM | A498 > 100 µM | A549 > 100 µM | ACHN > 100 µM | CAKI-1 > 100 µM | CCRF-CEM > 100 µM | COLO 205 > 100 µM | DLD-1 > 100 µM | DMS-114 > 100 µM | DMS-273 > 100 µM | HCC 2998 > 100 µM | HCT-116 > 100 µM | HL-60 > 100 µM | HOP-18 > 100 µM | HOP-62 > 100 µM | HOP-92 > 100 µM | HT-29 > 100 µM | IGROV-1 > 100 µM | K562 > 100 µM | KM-20L2 > 100 µM | KM12 > 100 µM | LOX IMVI > 100 µM | LXFL 529 > 100 µM | M14 > 100 µM | M19-MEL > 100 µM | MOLT-4 > 100 µM | Malme-3M > 100 µM | NCI-H23 > 100 µM | NCI-H460 > 100 µM | NCI-H522 > 100 µM | OVCAR-3 > 100 µM | OVCAR-4 60.4 µM | OVCAR-8 > 100 µM | RPMI-8226 > 100 µM | RXF 631 > 100 µM | SF-268 > 100 µM | SF-295 > 100 µM | SF-539 > 100 µM | SK-MEL-28 > 100 µM | SK-MEL-5 > 100 µM | SK-OV-3 > 100 µM | SN12C > 100 µM | SNB-19 > 100 µM | SNB-75 74.6 µM | SNB-78 > 100 µM | SR > 100 µM | SW-620 > 100 µM | TK-10 > 100 µM | U-251 > 100 µM | UACC-257 > 100 µM | UACC-62 > 100 µM | UO-31 > 100 µM | XF498 > 100 µM

CCOC(=O)C(C(=O)OCC)=C1N[C@H](C(=O)OCC)CS1
inactive: 786-0 > 100 µM | A549 > 100 µM | ACHN > 100 µM | CAKI-1 > 100 µM | CCRF-CEM > 100 µM | COLO 205 > 100 µM | DLD-1 > 100 µM | EKVX > 100 µM | HCC 2998 > 100 µM | HCT-116 > 100 µM | HL-60 > 100 µM | HOP-18 > 100 µM | HOP-62 > 100 µM | HT-29 > 100 µM | IGROV-1 > 100 µM | K562 > 100 µM | KM-20L2 > 100 µM | KM12 > 100 µM | LOX IMVI > 100 µM | LXFL 529 > 100 µM | M14 > 100 µM | M19-MEL > 100 µM | MOLT-4 > 100 µM | Malme-3M > 100 µM | NCI-H226 80.5 µM | NCI-H23 > 100 µM | NCI-H460 > 100 µM | NCI-H522 > 100 µM | OVCAR-3 > 100 µM | OVCAR-4 > 100 µM | OVCAR-5 > 100 µM | OVCAR-8 > 100 µM | RPMI-8226 > 100 µM | RXF 393 > 100 µM | RXF 631 > 100 µM | SF-268 > 100 µM | SF-295 > 100 µM | SF-539 > 100 µM | SK-MEL-28 > 100 µM | SK-MEL-2 > 100 µM | SK-MEL-5 > 100 µM | SN12C > 100 µM | SNB-19 > 100 µM | SNB-78 > 100 µM | SR > 100 µM | SW-620 > 100 µM | U-251 > 100 µM | UACC-257 > 100 µM | UACC-62 > 100 µM | UO-31 > 100 µM | XF498 > 100 µM
> 100 µM: HCT-15
